According to patent US20020169296A1, “Linked, sequence-specific DNA-binding molecules” (priority 2000, published 2002):
“And” between values parts separate entries of the source, which are not always exact repeats. Identical values can stand only once.

How the values were obtained:
[1] = test system: W9 probe (isolated 9 bp AT-tract); assay: DNase I footprinting on W9 probe; assay type: binding
Excerpt: To target AT-tracts, the principal component of satellite I, III and SARs), a pyrrole pentamer was synthesized by facile solid phase chemistry in which five pyrrole (Py) aromatic amino acid rings are linked covalently by amide bonds (Baird and Dervan, 1996). The resulting compound, termed P7 had the sequence Py-Py-Py-Py-Py-β-Dp (where β=β-alanine and Dp=dimethylaminopropylamide). This compound is expected to bind 7 successive A or T base pairs (Ws) according to the n+1 rule where n is the number of amides (Youngquist and Dervan, 1985). The DNA binding properties of P7 were assessed by DNAse I footprinting experiments using a synthetic probe containing isolated, repeated AT-tracts of 9 Ws (W9, FIG. 2A). By visual inspection, the apparent dissociation constant (Kapp) for P7 was estimated to be approximately 80 nM (Table 3).
were hybridized to obtain the W9 probe, oligomerized by ligation and digested with BamHl and BglII to obtain different tandem repeats. The following oligonucleotides were prepared identically:
(§1) Fragments were purified on low-melt agarose gels and then cloned into a modified pSP64 vector, cut by BamHI and BglII. End-labeling was carried out following digestion with HindIII and a fill-in reaction with Klenow DNA polymerase. The labeled plasmid was cut with PvuII and the target fragments purified from low-melting agarose gels. The 657 bp EcoRl/Hinf1 fragment of the Drosophila histone SAR was cloned into the SmaI site of the modified pSP64 plasmid. This SAR probe was end-labeled following digestion with EcoRl, then cut with ClaI and the resulting 347 bp fragment purified from low-melting agarose gels.
(§2) All reactions were performed in a total volume of 40 μl. A polyamide stock solution or buffer (for reference lanes) was added to an assay buffer containing 20 kcpm radiolabeled DNA, affording final concentrations of 10 mM Tris-HCl (pH 7.4), 10 mM KCl, 10 mM MgCl, 5 mM CaCl2, 0.5 mM EDTA, 0.5 mM EGTA, 1 mM DTT and 0.1% digitonine. The solutions were allowed to equilibrate for at least 2 h at room temperature. Footprinting reactions were initiated by the addition of 2 μl of a DNase stock solution (containing −100 pg DNase I in buffer) and allowed to proceed for 2 min at room temperature. The reactions were stopped by addition of 10 μl of a solution containing 1.25 M NaCl, 100 mM EDTA. Next, 5 μl of a 1% SDS solution was added, followed by 2 μl of a solution containing 1 μg poly(dA-dT), 1 μg salmon sperm DNA and 10 μg glycogen and the DNA was ethanol precipitated (20 min at −20° C.). The reactions were resuspended in 4 μl of 80% formamide loading buffer, denatured 10 min at 85° C., cooled on ice and electrophoresed on 8% polyacrylamide denaturing gels (5% cross-link, 8 M urea) at 30 W for 1 h. The gels were dried and exposed o/n at −70° C.

[2] = test system: Drosophila histone SAR probe (clustered/long AT-tracts); assay: DNase I footprinting on SAR probe; assay type: binding
Procedure: Since satellite I is composed of exclusively A and T bases, it constitutes an ‘ideal’ binding substrate for oligopyrroles. But to obtain SAR-specific compounds, molecules are required that preferably bind its clustered, irregularly spaced AT-tracts. Binding studies were carried out with P9, P7 and P13 on the Drosophila histone SAR probe which contains the following clustered/long AT-tracts (W15N3W17N5W16N13W8NW6 where N is any base, see also FIG. 3D). […] The ratio of these two affinities is used (KappW9/KappSAR) as an empirical measure of SAR specificity. For all compounds tested thus far, this value (referred to as SAR preference factor) was around unity (Table 3).
as §1, §2

[3] = test system: Drosophila satellite III chromatin (topoisomerase II cleavage); assay: Topoisomerase II cleavage in satellite III of Kc nuclei in Xenopus egg extracts with VM26; assay type: biochemical
[4] = test system: sperm nuclei (condensation to chromatids); assay: Chromosome condensation of sperm nuclei in mitotic Xenopus egg extracts; assay type: biochemical
Excerpt: Mitotic Xenopus egg extracts convert added nuclei and sperm to chromatids in vitro. This chromosome condensation process requires topoisomerase II (Adachi et al., 1991), the protein complex condensin (Hirano T, 1997) and presumably other unidentified activities present in the mitotic extract. First, chromatin is remodeled and nuclei then proceed quite synchronously through a number of morphologically distinguishable steps (Hirano and Mitchison, 1991). Remodeling is morphological manifested by swelling of the nuclei which involves exchange of basic sperm-specific proteins for H2A/H2B and the incorporation of histone B4 (Dimitrov S, 1994).
Pyrrole drugs were added to the extract together with the sperm or after the remodeling step (at 10 minutes) and the extent of condensation was determined after 120 min. At this time point, the conversion of all sperm nuclei to clusters of individual chromatids is complete in the absence of drug (FIG. 8A, control). […] Addition of this compound at 125 to 250 nM (indicated) arrested this process at the so-called early ‘ruffle’ stage (FIG. 8A). These structures retain the swollen sperm shape, but they have peripheral blebs (ruffles) and a slightly heterogeneous interior. At this drug concentration, no chromatids are seen. If the concentration of Lex10 is raised to 500 nM, we observed an even earlier arrest as evidenced by the accumulation of swollen, remodeled sperm-shaped nuclei containing a homogeneous interior and smooth periphery. […] The monomer P7 was also tested but we observed no inhibition with the pyrrole pentamer up to the highest concentration (8 μM) tested. Condensation was inhibited at a ruffle stage with a P9 concentration of 2 μM (not shown).
In the experiment shown in FIG. 8B, Lex10 was added to the extract at a final concentration of 1 μM (several fold above the minimum inhibitory concentration) after which competitor oligonucleotides were added at different stages. Three different oligonucleotides of similar size were used: the SAR oligo contains two large clustered AT-tracts of the SAR probe (W17N5W15), the W9 oligo has a single AT tract of 9 base pairs and the GAGAA oligo harbors 5 tandem GAGAA repeats.
Topoisomerase II inhibition and chromosome assembly were as described previously (Girard et al., 1998, Strick and Laemmli, 1995). Affinity cleavage experiments was performed as described elsewhere (Turner et al., 1997).

[5] = test system: satellite III chromatin; assay: Restriction enzyme (HaeIII) cleavage within satellite III chromatin; assay type: biochemical, Drosophila; details: data not shown
Excerpt: Satellite III repeats contain near the topoisomerase II cleavage site a HaeIII restriction sequence. […] We made a similar observation using P9 (data not shown).

## CN(C)CCCNC(=O)CCNC(=O)c1cc(NC(=O)c2cc(NC(=O)c3cc(NC(=O)CCNC(=O)c4cc(NC(=O)c5cc(NC(=O)c6cccn6C)cn5C)cn4C)cn3C)cn2C)cn1C [Compound P9, PyPyPy-β-PyPyPy-β-Dp]
[1]
  better affinity for W9 than P7: 100 fold
[1]; apparent dissociation constant, W9 probe, read-out: Kdapp W9
  Kd: ~750 pM and 750 pM
[2]
  Ratio (KappW9/KappSAR, SAR preference factor): 1.4
[2]; apparent dissociation constant, SAR probe, read-out: Kdapp SAR
  Kd: 550 pM
[2]; value of the tagged derivative
  SAR specificity factor after tagging with fluorescent label: 3
[3]
  concentration of maximal stimulation of topoisomerase II cleavage: 500 nM and 500 to 1000 nM
  lower concentration for opening satellite III than P31: roughly 10 fold
  stimulation of topoisomerase II cleavage in satellite III: massively stimulated
[3]; P31 at 500 nM comparable to P9 at 62 nM (lowest tested)
  concentration giving massive cleavage stimulation: 62 nM
[4]; 120 min
  concentration inhibiting chromosome condensation (block at ruffle stage): 2 µM
[4]; P9 2 μM, 500 ng of SAR-, W9- or GAGAA-oligo
  reversal of condensation inhibition by competitor oligonucleotide: did not rescue chromatid assembly
[5]
  restriction enzyme cleavage within satellite III: facilitated cleavage
